Publication PMC6345558 (European journal of medicinal chemistry, 2018)

Key:
MCF7 cancer cells = assay: MTT cytotoxicity, MCF7 breast cancer cells; assay type: cell-based, human; details: for IC50: read-out: IC50 MCF7, MTT assay, 24 h incubation
MDA-MB-231 cancer cells = assay: MTT cytotoxicity, MDA-MB-231 breast cancer cells; assay type: cell-based, human; details: read-out: IC50 MDA-MB-231; MTT assay, 24 h incubation
[1] = tested on: HEK293 cells overexpressing BCRP; assay: MTT growth inhibition, HEK293 cells overexpressing BCRP; details: HEK293/BCRP vs HEK293
BCRP (ABCG2) = target: T1, BCRP (ABCG2) (Homo sapiens, UniProt Q9UNQ0); assay: Flow cytometry, inhibition of mitoxantrone efflux by BCRP; details: compound 20 µM, 5 µM mitoxantrone, transfected cells
T1 sequence (Q9UNQ0 1-655): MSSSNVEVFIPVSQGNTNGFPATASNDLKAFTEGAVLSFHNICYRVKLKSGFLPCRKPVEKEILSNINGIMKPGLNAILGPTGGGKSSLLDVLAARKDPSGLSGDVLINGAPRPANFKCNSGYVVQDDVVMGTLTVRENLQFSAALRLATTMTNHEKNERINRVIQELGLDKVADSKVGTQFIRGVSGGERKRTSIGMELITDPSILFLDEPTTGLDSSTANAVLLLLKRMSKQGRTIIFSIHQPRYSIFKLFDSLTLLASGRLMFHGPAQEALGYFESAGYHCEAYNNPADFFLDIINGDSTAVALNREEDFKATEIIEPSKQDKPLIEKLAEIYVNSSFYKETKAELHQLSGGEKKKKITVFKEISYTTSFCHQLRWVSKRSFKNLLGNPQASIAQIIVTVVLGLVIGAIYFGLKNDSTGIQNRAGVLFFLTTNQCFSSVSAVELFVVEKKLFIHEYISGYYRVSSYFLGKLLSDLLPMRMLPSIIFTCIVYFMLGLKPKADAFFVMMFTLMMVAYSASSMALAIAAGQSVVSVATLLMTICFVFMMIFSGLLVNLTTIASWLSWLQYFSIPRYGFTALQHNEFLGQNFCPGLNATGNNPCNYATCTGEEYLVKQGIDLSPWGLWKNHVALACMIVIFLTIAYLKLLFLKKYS

[2] = tested on: NIH3T3 cells overexpressing P-gp; assay: MTT growth inhibition, NIH3T3 cells overexpressing P-gp
MRP2 = MRP2 (Homo sapiens, UniProt Q92887); assay: Flow cytometry, inhibition of calcein AM efflux by MRP2; assay type: cell-based; details: compound 20 µM, 0.2 µM calcein AM, transfected cells
MRP1 = MRP1 (Homo sapiens, UniProt P33527); assay: Flow cytometry, inhibition of calcein AM efflux by MRP1; assay type: cell-based; details: compound 20 µM, 0.2 µM calcein AM, transfected cells
NIH3T3 cells = assay: MTT growth inhibition, NIH3T3 control cells; assay type: cell-based; details: read-out: Half inhibitory growth concentration, IG50, NIH3T3, empty plasmid control, 48 h incubation at 37 °C
[3] = tested on: HEK293 cells overexpressing MRP1; assay: MTT growth inhibition, HEK293 cells overexpressing MRP1; details: HEK293/MRP1 vs HEK293

MRP1, sequence (P33527 whole entry): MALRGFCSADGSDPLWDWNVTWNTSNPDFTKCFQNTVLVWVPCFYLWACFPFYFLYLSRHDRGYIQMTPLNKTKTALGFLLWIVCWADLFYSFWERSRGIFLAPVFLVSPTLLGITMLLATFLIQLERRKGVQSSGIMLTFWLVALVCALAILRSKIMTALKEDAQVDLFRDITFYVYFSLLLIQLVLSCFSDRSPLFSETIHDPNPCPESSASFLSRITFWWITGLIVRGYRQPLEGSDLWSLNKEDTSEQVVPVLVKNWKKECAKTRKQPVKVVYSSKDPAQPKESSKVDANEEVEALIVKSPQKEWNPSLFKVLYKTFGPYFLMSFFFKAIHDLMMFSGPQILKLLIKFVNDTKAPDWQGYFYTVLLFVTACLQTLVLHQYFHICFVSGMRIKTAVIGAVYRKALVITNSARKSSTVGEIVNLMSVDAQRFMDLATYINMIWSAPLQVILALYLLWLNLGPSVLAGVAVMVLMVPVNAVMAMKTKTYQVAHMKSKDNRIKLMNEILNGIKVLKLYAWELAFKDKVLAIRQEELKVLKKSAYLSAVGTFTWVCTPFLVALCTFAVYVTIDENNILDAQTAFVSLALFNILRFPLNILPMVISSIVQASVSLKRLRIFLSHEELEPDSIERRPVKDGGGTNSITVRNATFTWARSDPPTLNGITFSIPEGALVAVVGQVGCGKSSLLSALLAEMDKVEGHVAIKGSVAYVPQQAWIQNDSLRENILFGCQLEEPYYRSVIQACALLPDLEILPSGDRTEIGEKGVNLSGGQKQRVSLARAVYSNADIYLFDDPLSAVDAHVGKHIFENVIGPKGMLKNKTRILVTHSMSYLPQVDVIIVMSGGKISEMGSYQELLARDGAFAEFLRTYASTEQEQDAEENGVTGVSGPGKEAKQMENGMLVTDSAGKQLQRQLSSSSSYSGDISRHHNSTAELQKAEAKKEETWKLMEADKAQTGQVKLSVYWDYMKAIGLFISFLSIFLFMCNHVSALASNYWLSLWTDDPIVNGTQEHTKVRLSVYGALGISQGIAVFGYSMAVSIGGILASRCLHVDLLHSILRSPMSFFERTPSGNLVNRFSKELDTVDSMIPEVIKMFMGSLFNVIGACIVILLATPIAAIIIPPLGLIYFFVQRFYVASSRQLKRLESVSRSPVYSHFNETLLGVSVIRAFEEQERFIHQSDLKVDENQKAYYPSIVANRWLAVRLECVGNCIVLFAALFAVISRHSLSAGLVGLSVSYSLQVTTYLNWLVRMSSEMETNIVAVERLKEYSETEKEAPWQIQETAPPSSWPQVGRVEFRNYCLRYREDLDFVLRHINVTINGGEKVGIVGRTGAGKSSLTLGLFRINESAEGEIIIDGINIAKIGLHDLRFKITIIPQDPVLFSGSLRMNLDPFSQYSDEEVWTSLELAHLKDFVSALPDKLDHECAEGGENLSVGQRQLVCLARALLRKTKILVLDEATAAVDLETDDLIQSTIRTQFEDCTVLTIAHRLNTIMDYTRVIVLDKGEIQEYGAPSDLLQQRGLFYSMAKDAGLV
MRP2, sequence (Q92887 whole entry): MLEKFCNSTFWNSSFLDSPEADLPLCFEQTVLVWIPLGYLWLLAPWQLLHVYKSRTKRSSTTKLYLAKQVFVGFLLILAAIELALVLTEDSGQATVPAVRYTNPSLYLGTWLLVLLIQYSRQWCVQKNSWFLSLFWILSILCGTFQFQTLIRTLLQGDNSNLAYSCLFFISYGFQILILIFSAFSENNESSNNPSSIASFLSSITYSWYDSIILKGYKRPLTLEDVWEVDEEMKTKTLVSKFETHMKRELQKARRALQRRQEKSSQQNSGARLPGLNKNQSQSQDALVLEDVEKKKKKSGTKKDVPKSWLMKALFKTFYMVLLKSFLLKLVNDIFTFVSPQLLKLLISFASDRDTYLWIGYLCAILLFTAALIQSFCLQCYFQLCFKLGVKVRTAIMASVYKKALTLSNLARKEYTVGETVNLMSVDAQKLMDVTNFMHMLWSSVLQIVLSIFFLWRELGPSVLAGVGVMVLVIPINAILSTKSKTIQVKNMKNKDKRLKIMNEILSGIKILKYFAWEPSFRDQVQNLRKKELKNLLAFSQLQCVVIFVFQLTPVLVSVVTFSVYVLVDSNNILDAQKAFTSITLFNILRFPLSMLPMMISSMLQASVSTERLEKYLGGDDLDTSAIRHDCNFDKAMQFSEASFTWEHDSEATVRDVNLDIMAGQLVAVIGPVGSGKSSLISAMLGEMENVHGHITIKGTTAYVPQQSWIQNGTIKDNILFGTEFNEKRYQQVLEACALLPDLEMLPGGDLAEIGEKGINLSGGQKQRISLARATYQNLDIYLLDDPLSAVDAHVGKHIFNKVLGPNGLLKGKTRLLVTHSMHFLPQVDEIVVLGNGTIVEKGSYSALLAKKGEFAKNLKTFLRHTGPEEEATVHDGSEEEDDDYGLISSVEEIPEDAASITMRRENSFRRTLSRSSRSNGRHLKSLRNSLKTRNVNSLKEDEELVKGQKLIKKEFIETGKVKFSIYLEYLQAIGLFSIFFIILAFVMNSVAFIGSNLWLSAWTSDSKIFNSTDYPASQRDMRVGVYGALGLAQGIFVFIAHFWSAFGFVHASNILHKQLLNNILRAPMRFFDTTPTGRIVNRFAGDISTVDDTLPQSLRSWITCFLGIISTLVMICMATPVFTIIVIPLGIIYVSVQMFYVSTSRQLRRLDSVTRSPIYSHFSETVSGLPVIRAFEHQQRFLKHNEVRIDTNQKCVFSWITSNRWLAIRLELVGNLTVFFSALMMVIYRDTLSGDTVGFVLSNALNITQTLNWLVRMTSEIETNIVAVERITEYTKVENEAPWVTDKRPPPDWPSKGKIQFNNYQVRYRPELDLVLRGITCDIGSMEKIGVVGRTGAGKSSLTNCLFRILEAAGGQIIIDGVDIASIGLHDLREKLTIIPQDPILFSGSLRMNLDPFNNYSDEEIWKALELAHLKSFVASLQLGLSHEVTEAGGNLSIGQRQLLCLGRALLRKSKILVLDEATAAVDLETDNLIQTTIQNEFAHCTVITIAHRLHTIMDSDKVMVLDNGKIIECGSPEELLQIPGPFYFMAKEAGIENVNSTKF

Structure (SMILES) | IC50 (MCF7 cancer cells) [µM] | IC50 (MDA-MB-231 cancer cells) [µM] | IG50 times higher than for non-transfected cells, BCRP [1] [times] | fold more cytotoxic than Ru2 (MCF7 cancer cells; MCF7 cancer cell line) | Inhibition of BCRP (ABCG2) substrate efflux (BCRP (ABCG2)) | IG50 times higher than for non-transfected cells, P-gp ([2]; NIH3T3/P-gp vs NIH3T3) [times] | IC50 ([2]; read-out: Half inhibitory growth concentration, IG50, P-gp, NIH3T3 overexpressing P-gp, 48 h incubation at 37 °C, MTT) [µM] | Inhibition of MRP2 substrate efflux (MRP2) | Inhibition of MRP1 substrate efflux (MRP1) | IC50 (NIH3T3 cells) [µM] | IG50 times higher than for non-transfected cells, MRP1 [3] [times]
N.N.[Cl][Pt][Cl] [Cisplatin, reference compound] | 38 ± 1.41 | 122 ± 25 |  |  |  |  |  |  |  |  | 
O=S(=O)([O-])C(F)(F)F.OCc1ccnc(-c2cc(CO)ccn2)c1.[Ru+2].c1cc[cH-]c1.c1ccc(P(c2ccccc2)c2ccccc2)cc1 [Ru1, [Ru(η^5-Cp)(PPh3)(2,2’-bipyridine-4,4’-dimethanol)][CF3SO3]] | 4.61 ± 0.96 | 13.9 ± 2.8 | 2.8 | ~ 7 fold | did not display any inhibition property | 2.4 | ~70 | did not display any inhibition property | did not display any inhibition property | 28 | 2
